What was measured:
[1] = target: T1, Human Thyroid Hormone Receptor α1 (TRα1) (Homo sapiens, UniProt P10827); assay: Transcription activation test of human thyroid hormone receptor α1 (luciferase reporter in 293T cells); type: cell-based; settings: ratio TRα/TRβ of the transcription activation EC50 values
T1 construct: expressed in transfected cells; host or cells: 293T cells
T1 sequence (P10827 1-410 isoform P10827-2): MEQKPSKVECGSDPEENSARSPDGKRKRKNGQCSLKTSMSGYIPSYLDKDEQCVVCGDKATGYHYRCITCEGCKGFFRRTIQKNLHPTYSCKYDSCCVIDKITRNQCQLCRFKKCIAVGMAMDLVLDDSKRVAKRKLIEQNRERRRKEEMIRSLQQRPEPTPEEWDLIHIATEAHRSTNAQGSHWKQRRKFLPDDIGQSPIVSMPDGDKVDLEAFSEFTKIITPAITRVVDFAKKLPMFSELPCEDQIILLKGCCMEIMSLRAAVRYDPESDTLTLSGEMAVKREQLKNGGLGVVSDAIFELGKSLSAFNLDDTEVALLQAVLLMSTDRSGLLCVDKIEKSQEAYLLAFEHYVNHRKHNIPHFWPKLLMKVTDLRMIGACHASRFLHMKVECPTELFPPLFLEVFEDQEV
Excerpt: (§1) Transcription Activation Test of Human Thyroid Hormone Receptors α1 (TRα1) and β1 (TRβ1)
(§2) pcDNA3.1 vector (manufactured by Invitrogen) that expresses TRα1 or β1 cloned from human liver-derived cells, and firefly luciferase expression vector pDR4-LuC (manufactured by Stratagene) having a thyroid hormone response sequence to be a reporter were transfected into 293T cells cultured in Dulbecco's modified Eagle medium (DMEM) containing 10% of activated carbon/dextran-treated fetal bovine serum (FBS) by using Lipofectamine2000 (manufactured by Invitrogen). After 16 hr, the cells were plated again in a 96 well plate, and the medium was exchanged with DMEM containing 0.1% activated carbon/dextran-treated FBS. After 3 more hr, a compound diluted with dimethyl sulfoxide solution was added, and the luciferase activity after 24 hr was measured.
(§3) As a positive control, 3,3′,5-triiodo-L-thyronine (T3), which is a biological ligand, was used. The transcription activation action of the compound on TRα1 and TRβ1 was shown by each EC50 value and the maximum luciferase activity value relative to the maximum luciferase activity value of T3 as 100.

[2] = target: T2, Human Thyroid Hormone Receptor β1 (TRβ1) (Homo sapiens, UniProt P10828); assay: Transcription activation test of human thyroid hormone receptor β1 (luciferase reporter in 293T cells); type: cell-based; settings: EC50 of transcription activation on TRβ1, 293T cells, luciferase activity after 24 hr; read-out: TRβ
T2 construct: expressed in transfected cells; host or cells: 293T cells
T2 sequence (P10828 1-461): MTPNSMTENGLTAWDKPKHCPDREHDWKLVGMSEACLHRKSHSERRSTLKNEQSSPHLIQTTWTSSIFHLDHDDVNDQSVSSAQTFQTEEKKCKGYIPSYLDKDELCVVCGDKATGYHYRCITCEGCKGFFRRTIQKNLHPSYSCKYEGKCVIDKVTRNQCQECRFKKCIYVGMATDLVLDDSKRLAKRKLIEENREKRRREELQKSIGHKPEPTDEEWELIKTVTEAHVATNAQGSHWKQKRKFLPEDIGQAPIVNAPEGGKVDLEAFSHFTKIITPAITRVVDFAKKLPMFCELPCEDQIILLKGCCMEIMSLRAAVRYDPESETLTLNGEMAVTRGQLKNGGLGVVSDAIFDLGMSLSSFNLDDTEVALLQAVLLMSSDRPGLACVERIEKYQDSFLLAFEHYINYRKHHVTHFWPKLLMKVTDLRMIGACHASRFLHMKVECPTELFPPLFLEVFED
Excerpt: as §1, §2, §3

selectivity (TRα/TRβ) [1] | EC50 [2] [nM] | Compound
B (2<(TRα/TRβ)<5) | 3 | Cc1cc(OCC(=O)O)cc(C)c1Cc1ccc(O)c(C(C)C)n1 [Example 1, {4-[(5-hydroxy-6-isopropylpyridin-2-yl)methyl]-3,5-dimethylphenoxy}acetic acid]
B (2<(TRα/TRβ)<5) | 2 | Cc1cc(OCC(=O)O)cc(C)c1Cc1ccc(O)c(C2CCCCC2)n1 [Example 2, {4-[(6-cyclohexyl-5-hydroxypyridin-2-yl)methyl]-3,5-dimethylphenoxy}acetic acid]
A (5<(TRα/TRβ)) | 20 | Cc1cc(OCC(=O)O)cc(C)c1Cc1ccc(O)c(-c2ccc3ccccc3c2)n1 [Example 3, (4-{[5-hydroxy-6-(2-naphthyl)pyridin-2-yl]methyl}-3,5-dimethylphenoxy)acetic acid]
B (2<(TRα/TRβ)<5) | 0.5 | Cc1cc(OCC(=O)O)c(C)c(C)c1Cc1ccc(O)c(C(C)C)n1 [Example 4, {4-[(5-hydroxy-6-isopropylpyridin-2-yl)methyl]-2,3,5-trimethylphenoxy}acetic acid]
A (5<(TRα/TRβ)) | 0.5 | Cc1cc(OCC(=O)O)c(C)c(C)c1Cc1ccc(O)c(C2CCCC2)n1 [Example 5, {4-[(6-cyclopentyl-5-hydroxypyridin-2-yl)methyl]-2,3,5-trimethylphenoxy}acetic acid]
B (2<(TRα/TRβ)<5) | 50 | Cc1cc(OCC(=O)O)c(C)c(C)c1Cc1ccc(O)c(C2CCCO2)n1 (centres unmarked) [Example 6, (4-{[5-hydroxy-6-(tetrahydrofuran-2-yl)pyridin-2-yl]methyl}-2,3,5-trimethylphenoxy)acetic acid]
A (5<(TRα/TRβ)) | 1 | Cc1cc(OCC(=O)O)c(C)c(C)c1Cc1ccc(O)c(C2CCCCC2)n1 [Example 7, {4-[(6-cyclohexyl-5-hydroxypyridin-2-yl)methyl]-2,3,5-trimethylphenoxy}acetic acid]
A (5<(TRα/TRβ)) | 50 | Cc1cc(OCC(=O)O)c(C)c(C)c1Cc1ccc(O)c(C2CCCCO2)n1 (centres unmarked) [Example 8, (4-{[5-hydroxy-6-(tetrahydro-2H-pyran-2-yl)pyridin-2-yl]methyl}-2,3,5-trimethylphenoxy)acetic acid]
C (2>(TRα/TRβ)) | 7 | Cc1cc(OCC(=O)O)c(C)c(C)c1Oc1ccc(O)c(C(C)C)n1 [Example 9, {4-[(5-hydroxy-6-isopropylpyridin-2-yl)oxy]-2,3,5-trimethylphenoxy}acetic acid]
B (2<(TRα/TRβ)<5) | 30 | Cc1cc(OCC(=O)O)c(C)c(C)c1Oc1ccc(O)c(C2CCCCC2)n1 [Example 10, {4-[(6-cyclohexyl-5-hydroxypyridin-2-yl)oxy]-2,3,5-trimethylphenoxy}acetic acid]
B (2<(TRα/TRβ)<5) | 1 | Cc1cc(OCC(=O)O)c(F)c(C)c1Cc1ccc(O)c(C(C)C)n1 [Example 11, {2-fluoro-4-[(5-hydroxy-6-isopropylpyridin-2-yl)methyl]-3,5-dimethylphenoxy}acetic acid]
B (2<(TRα/TRβ)<5) | 0.7 | Cc1cc(OCC(=O)O)c(F)c(C)c1Cc1ccc(O)c(C2CCCCC2)n1 [Example 12, {4-[(6-cyclohexyl-5-hydroxypyridin-2-yl)methyl]-2-fluoro-3,5-dimethylphenoxy}acetic acid]
A (5<(TRα/TRβ)) | 0.3 | Cc1cc(OCC(=O)O)c(Br)c(C)c1Cc1ccc(O)c(C2CCCCC2)n1 [Example 13, {2-bromo-4-[(6-cyclohexyl-5-hydroxypyridin-2-yl)methyl]-3,5-dimethylphenoxy}acetic acid]
B (2<(TRα/TRβ)<5) | 10 | Cc1cc(OC(C)C(=O)O)cc(C)c1Cc1ccc(O)c(C2CCCCC2)n1 (centres unmarked) [Example 14, 2-{4-[(6-cyclohexyl-5-hydroxypyridin-2-yl)methyl]-3,5-dimethylphenoxy}propanoic acid]
B (2<(TRα/TRβ)<5) | 9 | Cc1cc(OC(C)C(=O)O)c(C)c(C)c1Cc1ccc(O)c(C2CCCCC2)n1 (centres unmarked) [Example 15, 2-{4-[(6-cyclohexyl-5-hydroxypyridin-2-yl)methyl]-2,3,5-trimethylphenoxy}propanoic acid]
B (2<(TRα/TRβ)<5) | 20 | Cc1cc(OC(C)(C)C(=O)O)cc(C)c1Cc1ccc(O)c(C2CCCCC2)n1 [Example 16, 2-{4-[(6-cyclohexyl-5-hydroxypyridin-2-yl)methyl]-3,5-dimethylphenoxy}-2-methylpropanoic acid]
B (2<(TRα/TRβ)<5) | 20 | Cc1cc(OC(C)(C)C(=O)O)c(C)c(C)c1Cc1ccc(O)c(C2CCCCC2)n1 [Example 17, 2-{4-[(6-cyclohexyl-5-hydroxypyridin-2-yl)methyl]-2,3,5-trimethylphenoxy}-2-methylpropanoic acid]
C (2>(TRα/TRβ)) | 2000 | Cc1cc(OC2(C(=O)O)CC2)cc(C)c1Cc1ccc(O)c(C2CCCCC2)n1 [Example 18, 1-{4-[(6-cyclohexyl-5-hydroxypyridin-2-yl)methyl]-3,5-dimethylphenoxy}cyclopropanecarboxylic acid]
B (2<(TRα/TRβ)<5) | 5 | Cc1cc(NC(=O)C(=O)O)cc(C)c1Cc1ccc(O)c(C2CCCCC2)n1 [Example 19, ({4-[(6-cyclohexyl-5-hydroxypyridin-2-yl)methyl]-3,5-dimethylphenyl}amino)(oxo)acetic acid]
C (2>(TRα/TRβ)) | 4 | Cc1cc(NC(=O)C(=O)O)c(C)c(C)c1Cc1ccc(O)c(C2CCCCC2)n1 [Example 20, ({4-[(6-cyclohexyl-5-hydroxypyridin-2-yl)methyl]-2,3,5-trimethylphenyl}amino)(oxo)acetic acid]
B (2<(TRα/TRβ)<5) | 30 | Cc1cc(NC(=O)CC(=O)O)cc(C)c1Cc1ccc(O)c(C(C)C)n1 [Example 21, 3-({4-[(5-hydroxy-6-isopropylpyridin-2-yl)methyl]-3,5-dimethylphenyl}amino)-3-oxopropanoic acid]
A (5<(TRα/TRβ)) | 200 | Cc1cc(NC(=O)CC(=O)O)cc(C)c1Cc1ccc(O)c(-c2ccccc2)n1 [Example 22, 3-({4-[(5-hydroxy-6-phenylpyridin-2-yl)methyl]-3,5-dimethylphenyl}amino)-3-oxopropanoic acid]
A (5<(TRα/TRβ)) | 10 | Cc1cc(NC(=O)CC(=O)O)cc(C)c1Cc1ccc(O)c(C2CCCCC2)n1 [Example 23, 3-({4-[(6-cyclohexyl-5-hydroxypyridin-2-yl)methyl]-3,5-dimethylphenyl}amino)-3-oxopropanoic acid]
B (2<(TRα/TRβ)<5) | 30 | Cc1cc(NC(=O)CC(=O)O)c(C)c(C)c1Cc1ccc(O)c(C2CCCCC2)n1 [Example 24, 3-({4-[(6-cyclohexyl-5-hydroxypyridin-2-yl)methyl]-2,3,5-trimethylphenyl}amino)-3-oxopropanoic acid]
C (2>(TRα/TRβ)) | 1 | Cc1cc(/C=C/C(=O)O)c(C)c(C)c1Cc1ccc(O)c(C2CCCCC2)n1 [Example 25, (2E)-3-{4-[(6-cyclohexyl-5-hydroxypyridin-2-yl)methyl]-2,3,5-trimethylphenyl}acrylic acid]
